Experimental data as given in US9738634B2, “Heterocyclic amide compound and herbicide” (SYNGENTA PARTICIPATIONS AG, priority 2013, dated 2017).

Experiments:
Assay type in all cases: in vivo
Settings in all cases: treatment dosage 320 g/ha
corn [1] = test: Test Example 3: soil treatment, effect on crop; c: corn
In short: (§1)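 Crop and weed responses were judged three weeks after a uniform surface spray of the water-diluted emulsion at the given g/ha rate. Seeds sat beneath about 1.5 cm of sterilized diluvial soil, and boxes stood in a greenhouse at 25 to 30° C.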

wild oat [2] = test: Test Example 4: weedkilling efficacy by foliar treatment; G: wild oat
In short: (§2)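 Seeds are spot-sown into sterilized diluvial soil and covered with about 1.5 cm of soil. After 14 days' greenhouse growth at 25 to 30° C, plants are sprayed on stems and leaves with diluted emulsion at the stated g/ha rate, then scored at 3 weeks.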

oval-leafed pondweed [3] = test: Test Example 1: weedkilling efficacy, preemergent weed treatment in the submerged state; C: oval-leafed pondweed
In short: (§3)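 Pre-emergence paddy test: weed seeds sown in submerged alluvial soil (4 cm water), 2.5-leaf rice transplanted, water-diluted emulsion applied to water surface at sowing at stated g/ha. Scored at 3 weeks, greenhouse 25–30 °C.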

black-grass [4] = test: Test Example 3: weedkilling efficacy through soil treatment; H: black-grass
In short: as §1

chickweed [5] = test: Test Example 4: weedkilling efficacy by foliar treatment; N: chickweed
In short: as §2

beet [6] = test: Test Example 3: soil treatment, effect on crop; f: beet
In short: as §1

Indian mallow [7] = test: Test Example 4: weedkilling efficacy by foliar treatment; K: Indian mallow
In short: as §2

directly sown rice [8] = test: Test Example 3: soil treatment, effect on crop; b: directly sown rice
In short: as §1

redroot pigweed [9] = test: Test Example 4: weedkilling efficacy by foliar treatment; L: redroot pigweed
In short: as §2

birds-eye speedwell [10] = test: Test Example 3: weedkilling efficacy through soil treatment; p: birds-eye speedwell
In short: as §1

wheat [11] = test: Test Example 3: soil treatment, effect on crop; e: wheat
In short: as §1

common wind-grass [12] = test: Test Example 3: weedkilling efficacy through soil treatment; J: common wind-grass
In short: as §1

green foxtail [13] = test: Test Example 4: weedkilling efficacy by foliar treatment; E: green foxtail
In short: as §2

green foxtail [14] = test: Test Example 3: weedkilling efficacy through soil treatment; E: green foxtail
In short: as §1

barnyard grass [15] = test: Test Example 1: weedkilling efficacy, preemergent weed treatment in the submerged state; A: barnyard grass
In short: as §3

soybean [16] = test: Test Example 3: soil treatment, effect on crop; d: soybean
In short: as §1

common wind-grass [17] = test: Test Example 4: weedkilling efficacy by foliar treatment; J: common wind-grass
In short: as §2

corn [18] = test: Test Example 4: foliar treatment, effect on crop; c: corn
In short: as §2

beet [19] = test: Test Example 4: foliar treatment, effect on crop; f: beet
In short: as §2

directly sown rice [20] = test: Test Example 4: foliar treatment, effect on crop; b: directly sown rice
In short: as §2

Indian mallow [21] = test: Test Example 3: weedkilling efficacy through soil treatment; K: Indian mallow
In short: as §1

catchweed [22] = test: Test Example 4: weedkilling efficacy by foliar treatment; O: catchweed
In short: as §2

birds-eye speedwell [23] = test: Test Example 4: weedkilling efficacy by foliar treatment; p: birds-eye speedwell
In short: as §2

black-grass [24] = test: Test Example 4: weedkilling efficacy by foliar treatment; H: black-grass
In short: as §2

rapeseed [25] = test: Test Example 3: soil treatment, effect on crop; g: rapeseed
In short: as §1

rapeseed [26] = test: Test Example 4: foliar treatment, effect on crop; g: rapeseed
In short: as §2

Italian ryegrass [27] = test: Test Example 3: weedkilling efficacy through soil treatment; I: Italian ryegrass
In short: as §1

fig-leafed goosefoot [28] = test: Test Example 3: weedkilling efficacy through soil treatment; M: fig-leafed goosefoot
In short: as §1

Italian ryegrass [29] = test: Test Example 4: weedkilling efficacy by foliar treatment; I: Italian ryegrass
In short: as §2

oval-leafed pondweed [30] = test: Test Example 2: weedkilling efficacy, growth period weed treatment in the submerged state; C: oval-leafed pondweed
In short: (§4)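 Seedlings at 1-2 leaves in 4 cm-deep submerged alluvial soil received emulsion formulations on the water surface, dosed per hectare; effects were judged 3 weeks on.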

crabgrass [31] = test: Test Example 4: weedkilling efficacy by foliar treatment; D: crabgrass
In short: as §2

soybean [32] = test: Test Example 4: foliar treatment, effect on crop; d: soybean
In short: as §2

fig-leafed goosefoot [33] = test: Test Example 4: weedkilling efficacy by foliar treatment; M: fig-leafed goosefoot
In short: as §2

barnyard grass [34] = test: Test Example 4: weedkilling efficacy by foliar treatment; F: barnyard grass
In short: as §2

redroot pigweed [35] = test: Test Example 3: weedkilling efficacy through soil treatment; L: redroot pigweed
In short: as §1

chickweed [36] = test: Test Example 3: weedkilling efficacy through soil treatment; N: chickweed
In short: as §1

catchweed [37] = test: Test Example 3: weedkilling efficacy through soil treatment; O: catchweed
In short: as §1

wheat [38] = test: Test Example 4: foliar treatment, effect on crop; e: wheat
In short: as §2

bulrush [39] = test: Test Example 1: weedkilling efficacy, preemergent weed treatment in the submerged state; B: bulrush
In short: as §3

bulrush [40] = test: Test Example 2: weedkilling efficacy, growth period weed treatment in the submerged state; B: bulrush
In short: as §4

transplanted rice = test: Test Example 1: preemergent weed treatment in the submerged state, effect on crop; a: transplanted rice
In short: as §3

wild oat [41] = test: Test Example 3: weedkilling efficacy through soil treatment; G: wild oat
In short: as §1

barnyard grass [42] = test: Test Example 2: weedkilling efficacy, growth period weed treatment in the submerged state; A: barnyard grass
In short: as §4

barnyard grass [43] = test: Test Example 3: weedkilling efficacy through soil treatment; F: barnyard grass
In short: as §1

crabgrass [44] = test: Test Example 3: weedkilling efficacy through soil treatment; D: crabgrass
In short: as §1

CC1=C(c2ccccc2)C(=O)N(C(C)(C)C(=O)Nc2cc(C#N)ccn2)CO1 [B-2-62]
c (corn) effect on crop grade (corn [1]): 0 (weed kill ratio 5% or less (practically no effect)) | G (wild oat) weedkilling efficacy grade (wild oat [2]): 1 (weed kill ratio 5% or more, less than 20%) | C (oval-leafed pondweed) weedkilling efficacy grade (oval-leafed pondweed [3]): 5 (weed kill ratio 90% or more, (practically complete withering)) | H (black-grass) weedkilling efficacy grade (black-grass [4]): 3 (weed kill ratio 40% or more, less than 70%) | N (chickweed) weedkilling efficacy grade (chickweed [5]): 2 (weed kill ratio 20% or more, less than 40%) | f (beet) effect on crop grade (beet [6]): 0 (weed kill ratio 5% or less (practically no effect)) | K (Indian mallow) weedkilling efficacy grade (Indian mallow [7]): 4 (weed kill ratio 70% or more, less than 90%) | b (directly sown rice) effect on crop grade (directly sown rice [8]): 0 (weed kill ratio 5% or less (practically no effect)) | L (redroot pigweed) weedkilling efficacy grade (redroot pigweed [9]): 4 (weed kill ratio 70% or more, less than 90%) | P (birds-eye speedwell) weedkilling efficacy grade (birds-eye speedwell [10]): 4 (weed kill ratio 70% or more, less than 90%) | e (wheat) effect on crop grade (wheat [11]): 0 (weed kill ratio 5% or less (practically no effect)) | J (common wind-grass) weedkilling efficacy grade (common wind-grass [12]): 5 (weed kill ratio 90% or more, (practically complete withering)) | E (green foxtail) weedkilling efficacy grade (green foxtail [13]): 3 (weed kill ratio 40% or more, less than 70%) | E (green foxtail) weedkilling efficacy grade (green foxtail [14]): 4 (weed kill ratio 70% or more, less than 90%) | A (barnyard grass) weedkilling efficacy grade (barnyard grass [15]): 5 (weed kill ratio 90% or more, (practically complete withering)) | d (soybean) effect on crop grade (soybean [16]): 0 (weed kill ratio 5% or less (practically no effect)) | J (common wind-grass) weedkilling efficacy grade (common wind-grass [17]): 4 (weed kill ratio 70% or more, less than 90%) | c (corn) effect on crop grade (corn [18]): 0 (weed kill ratio 5% or less (practically no effect)) | f (beet) effect on crop grade (beet [19]): 0 (weed kill ratio 5% or less (practically no effect)) | b (directly sown rice) effect on crop grade (directly sown rice [20]): 0 (weed kill ratio 5% or less (practically no effect)) | K (Indian mallow) weedkilling efficacy grade (Indian mallow [21]): 0 (weed kill ratio 5% or less (practically no effect)) | O (catchweed) weedkilling efficacy grade (catchweed [22]): 1 (weed kill ratio 5% or more, less than 20%) | P (birds-eye speedwell) weedkilling efficacy grade (birds-eye speedwell [23]): 4 (weed kill ratio 70% or more, less than 90%) | H (black-grass) weedkilling efficacy grade (black-grass [24]): 3 (weed kill ratio 40% or more, less than 70%) | g (rapeseed) effect on crop grade (rapeseed [25]): 0 (weed kill ratio 5% or less (practically no effect)) | g (rapeseed) effect on crop grade (rapeseed [26]): 4 (weed kill ratio 70% or more, less than 90%) | I (Italian ryegrass) weedkilling efficacy grade (Italian ryegrass [27]): 4 (weed kill ratio 70% or more, less than 90%) | M (fig-leafed goosefoot) weedkilling efficacy grade (fig-leafed goosefoot [28]): 3 (weed kill ratio 40% or more, less than 70%) | I (Italian ryegrass) weedkilling efficacy grade (Italian ryegrass [29]): 2 (weed kill ratio 20% or more, less than 40%) | C (oval-leafed pondweed) weedkilling efficacy grade (oval-leafed pondweed [30]): 5 (weed kill ratio 90% or more, (practically complete withering)) | D (crabgrass) weedkilling efficacy grade (crabgrass [31]): 3 (weed kill ratio 40% or more, less than 70%) | d (soybean) effect on crop grade (soybean [32]): 0 (weed kill ratio 5% or less (practically no effect)) | M (fig-leafed goosefoot) weedkilling efficacy grade (fig-leafed goosefoot [33]): 3 (weed kill ratio 40% or more, less than 70%) | F (barnyard grass) weedkilling efficacy grade (barnyard grass [34]): 3 (weed kill ratio 40% or more, less than 70%) | L (redroot pigweed) weedkilling efficacy grade (redroot pigweed [35]): 2 (weed kill ratio 20% or more, less than 40%) | N (chickweed) weedkilling efficacy grade (chickweed [36]): 3 (weed kill ratio 40% or more, less than 70%) | O (catchweed) weedkilling efficacy grade (catchweed [37]): 0 (weed kill ratio 5% or less (practically no effect)) | e (wheat) effect on crop grade (wheat [38]): 0 (weed kill ratio 5% or less (practically no effect)) | B (bulrush) weedkilling efficacy grade (bulrush [39]): 5 (weed kill ratio 90% or more, (practically complete withering)) | B (bulrush) weedkilling efficacy grade (bulrush [40]): 3 (weed kill ratio 40% or more, less than 70%) | a (transplanted rice) effect on crop grade (transplanted rice): 1 (weed kill ratio 5% or more, less than 20%) | G (wild oat) weedkilling efficacy grade (wild oat [41]): 3 (weed kill ratio 40% or more, less than 70%) | A (barnyard grass) weedkilling efficacy grade (barnyard grass [42]): 4 (weed kill ratio 70% or more, less than 90%) | F (barnyard grass) weedkilling efficacy grade (barnyard grass [43]): 3 (weed kill ratio 40% or more, less than 70%) | D (crabgrass) weedkilling efficacy grade (crabgrass [44]): 4 (weed kill ratio 70% or more, less than 90%)
